Key:
Enterovirus = assay: Antiviral assay: virus yield reduction measured by plaque assay in infected cells; type: cell-based
From the text: (§1) Representative viruses of the Rhinovirus and Enterovirus genera were chosen for study: Rhinovirus 2 (RV2), Rhinovirus 14 (RV14), Coxsackievirus […] (CVB3) and Echovirus 11 (EV11). Each virus is propogated in two different cell lines as follows: RV2 and RV14 in HEL and HeLa cells, CVB3 in BS-C-1 and HeLa (human cervical adenocarcinoma) cells, EV11 in BS-C-1 (African green monkey kidney, primary) and HEL (human embryonic lung, primary) cells. Propogation of virus strains in two different cell lines is performed as different cell types may utilize different ion transport pathways.
(§2) Antiviral assays are determined as follows. Monolayers of HeLa T cells (human cervical adenocarcinoma) in 12-well plates are infected with 0.01 plaque forming units per cell of Rhinovirus 2 in minimum essential medium with Earle's salts (MEM) supplemented with 1% v/v fetal bovine serum (FBS) or mock-infected with medium for 1 hour. […] Cells are further incubated for 70 hours at 34° C., until extensive cell death is observed in the no drug control. Cells plus culture supernatants are freeze-thawed and virus titre in each sample is determined by plaque assay.

Rhinovirus = assay: as above; type: cell-based
From the text: as §1, §2

HeLa cells = assay: Cytotoxicity on uninfected cells, Alamar Blue metabolic activity; conditions: uninfected HeLa T cells, 70 hours at 34° C.

Row | SMILES | effectiveness against Enterovirus (Enterovirus) | effectiveness against Rhinovirus (Rhinovirus) | toxicity to HeLa cells compared to the inhibition of virus production (HeLa cells)
1 | N=C(NCc1ccccc1)NC(=O)c1nc(Cl)c(N)nc1N [Benzamil] | particularly effective |  | 
2 | N=C(N)NC(=O)c1nc(Cl)c(N)nc1N [Amiloride] | particularly effective |  | 
3 | COc1ccc(CCN(C)CCCC(C#N)(c2ccc(OC)c(OC)c2)C(C)C)cc1OC (centres unmarked) [Verapamil] |  | particularly effective | 
4 | CCN(c1nc(N)c(C(=O)NC(=N)N)nc1Cl)C(C)C [EIPA, 5-(N-ethyl-N-isopropyl)amiloride] |  | particularly effective | far less toxic
